Source: PMC4774911, “Biochemical Screening of Five Protein Kinases from Plasmodium falciparum against 14,000 Cell-Active Compounds” (PLoS ONE, 2016)
Where “and” joins values, the source holds several entries; their conditions need not be identical. Identical values can stand only once.

Columns and labels:
Experiment in all cases: biochemical
[1] = biological target: T1, PIP4K2A (Homo sapiens, UniProt P48426)
T1 sequence (P48426 1-406): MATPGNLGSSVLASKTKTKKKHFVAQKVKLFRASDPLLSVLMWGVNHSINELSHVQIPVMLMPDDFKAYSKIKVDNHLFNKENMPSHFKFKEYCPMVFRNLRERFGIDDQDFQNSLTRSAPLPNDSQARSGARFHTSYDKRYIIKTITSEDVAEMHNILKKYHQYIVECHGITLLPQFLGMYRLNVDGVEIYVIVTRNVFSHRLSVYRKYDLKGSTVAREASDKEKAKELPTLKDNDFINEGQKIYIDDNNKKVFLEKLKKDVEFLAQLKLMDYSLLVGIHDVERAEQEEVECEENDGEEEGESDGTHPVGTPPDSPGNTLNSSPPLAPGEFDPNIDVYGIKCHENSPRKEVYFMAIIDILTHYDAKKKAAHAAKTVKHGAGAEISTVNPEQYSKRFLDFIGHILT

[2] = biological target: STK39 (Homo sapiens, UniProt Q9UEW8)
[3] = biological target: T2, TTK (Homo sapiens, UniProt P33981)
T2 sequence (P33981 1-857): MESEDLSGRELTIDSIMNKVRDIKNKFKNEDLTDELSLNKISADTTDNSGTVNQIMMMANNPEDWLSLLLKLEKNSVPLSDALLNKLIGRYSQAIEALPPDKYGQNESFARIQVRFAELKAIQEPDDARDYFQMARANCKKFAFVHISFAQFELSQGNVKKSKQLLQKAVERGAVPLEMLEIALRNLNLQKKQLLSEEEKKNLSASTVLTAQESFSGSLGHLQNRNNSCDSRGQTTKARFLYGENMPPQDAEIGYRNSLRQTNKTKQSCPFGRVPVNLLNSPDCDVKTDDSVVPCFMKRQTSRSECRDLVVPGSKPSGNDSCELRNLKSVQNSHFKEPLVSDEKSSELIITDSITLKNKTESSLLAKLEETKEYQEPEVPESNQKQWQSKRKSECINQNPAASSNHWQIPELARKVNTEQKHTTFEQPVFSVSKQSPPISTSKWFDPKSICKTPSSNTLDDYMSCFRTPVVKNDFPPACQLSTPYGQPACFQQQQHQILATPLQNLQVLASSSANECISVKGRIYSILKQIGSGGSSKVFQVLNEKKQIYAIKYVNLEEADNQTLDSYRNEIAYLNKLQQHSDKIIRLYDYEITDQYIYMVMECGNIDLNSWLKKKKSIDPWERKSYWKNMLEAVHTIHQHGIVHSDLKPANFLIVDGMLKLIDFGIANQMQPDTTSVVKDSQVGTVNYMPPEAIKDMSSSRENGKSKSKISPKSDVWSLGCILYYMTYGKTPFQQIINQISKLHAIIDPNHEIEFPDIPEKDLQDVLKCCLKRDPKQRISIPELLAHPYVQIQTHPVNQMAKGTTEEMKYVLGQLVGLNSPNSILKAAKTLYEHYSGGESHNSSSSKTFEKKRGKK

[4] = biological target: PTK2B (Homo sapiens, UniProt Q14289)
Chain of PTK2B (Q14289 whole entry): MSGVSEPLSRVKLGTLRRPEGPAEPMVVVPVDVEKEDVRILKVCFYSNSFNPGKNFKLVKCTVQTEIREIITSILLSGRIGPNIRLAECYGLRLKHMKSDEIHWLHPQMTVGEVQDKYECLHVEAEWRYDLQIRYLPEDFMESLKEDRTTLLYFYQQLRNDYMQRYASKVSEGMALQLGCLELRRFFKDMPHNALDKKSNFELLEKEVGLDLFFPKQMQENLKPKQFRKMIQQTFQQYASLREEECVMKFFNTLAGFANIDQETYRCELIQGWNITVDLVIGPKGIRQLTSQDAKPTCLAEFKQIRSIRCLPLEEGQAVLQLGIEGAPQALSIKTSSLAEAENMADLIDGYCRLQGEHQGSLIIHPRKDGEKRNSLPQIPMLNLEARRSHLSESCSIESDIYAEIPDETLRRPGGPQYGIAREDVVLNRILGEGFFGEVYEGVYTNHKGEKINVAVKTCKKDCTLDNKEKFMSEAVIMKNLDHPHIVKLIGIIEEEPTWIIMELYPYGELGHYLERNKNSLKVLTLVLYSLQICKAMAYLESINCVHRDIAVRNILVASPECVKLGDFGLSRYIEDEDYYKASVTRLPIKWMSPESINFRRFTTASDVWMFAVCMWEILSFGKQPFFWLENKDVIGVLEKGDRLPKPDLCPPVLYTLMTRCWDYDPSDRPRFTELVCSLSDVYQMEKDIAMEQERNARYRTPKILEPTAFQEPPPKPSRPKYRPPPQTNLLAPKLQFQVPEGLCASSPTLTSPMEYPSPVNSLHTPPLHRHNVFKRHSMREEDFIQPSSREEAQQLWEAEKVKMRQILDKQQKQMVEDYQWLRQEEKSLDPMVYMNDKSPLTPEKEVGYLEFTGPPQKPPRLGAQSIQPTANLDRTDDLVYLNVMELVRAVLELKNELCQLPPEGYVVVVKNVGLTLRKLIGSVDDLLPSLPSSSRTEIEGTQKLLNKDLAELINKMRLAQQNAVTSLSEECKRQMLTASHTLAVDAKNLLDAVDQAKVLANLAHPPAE

[5] = biological target: T3, PDPK1 (Homo sapiens, UniProt O15530)
T3 sequence (O15530 1-556): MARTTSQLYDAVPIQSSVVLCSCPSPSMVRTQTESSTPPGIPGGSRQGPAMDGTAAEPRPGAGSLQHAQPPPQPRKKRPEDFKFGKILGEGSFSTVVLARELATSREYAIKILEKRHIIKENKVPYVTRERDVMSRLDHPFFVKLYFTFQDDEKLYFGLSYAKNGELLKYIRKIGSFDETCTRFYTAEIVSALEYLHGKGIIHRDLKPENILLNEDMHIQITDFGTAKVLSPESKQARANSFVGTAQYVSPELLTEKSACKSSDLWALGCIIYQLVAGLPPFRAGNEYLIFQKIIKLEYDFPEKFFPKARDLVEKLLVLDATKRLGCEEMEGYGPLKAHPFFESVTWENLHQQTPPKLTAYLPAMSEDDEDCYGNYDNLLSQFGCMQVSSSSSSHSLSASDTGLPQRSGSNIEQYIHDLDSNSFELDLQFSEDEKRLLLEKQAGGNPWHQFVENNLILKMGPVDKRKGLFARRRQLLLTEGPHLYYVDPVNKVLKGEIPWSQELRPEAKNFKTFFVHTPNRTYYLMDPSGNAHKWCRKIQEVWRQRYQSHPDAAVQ

[6] = biological target: RPS6KA5 (Homo sapiens, UniProt O75582)
Chain of RPS6KA5 (O75582 whole entry): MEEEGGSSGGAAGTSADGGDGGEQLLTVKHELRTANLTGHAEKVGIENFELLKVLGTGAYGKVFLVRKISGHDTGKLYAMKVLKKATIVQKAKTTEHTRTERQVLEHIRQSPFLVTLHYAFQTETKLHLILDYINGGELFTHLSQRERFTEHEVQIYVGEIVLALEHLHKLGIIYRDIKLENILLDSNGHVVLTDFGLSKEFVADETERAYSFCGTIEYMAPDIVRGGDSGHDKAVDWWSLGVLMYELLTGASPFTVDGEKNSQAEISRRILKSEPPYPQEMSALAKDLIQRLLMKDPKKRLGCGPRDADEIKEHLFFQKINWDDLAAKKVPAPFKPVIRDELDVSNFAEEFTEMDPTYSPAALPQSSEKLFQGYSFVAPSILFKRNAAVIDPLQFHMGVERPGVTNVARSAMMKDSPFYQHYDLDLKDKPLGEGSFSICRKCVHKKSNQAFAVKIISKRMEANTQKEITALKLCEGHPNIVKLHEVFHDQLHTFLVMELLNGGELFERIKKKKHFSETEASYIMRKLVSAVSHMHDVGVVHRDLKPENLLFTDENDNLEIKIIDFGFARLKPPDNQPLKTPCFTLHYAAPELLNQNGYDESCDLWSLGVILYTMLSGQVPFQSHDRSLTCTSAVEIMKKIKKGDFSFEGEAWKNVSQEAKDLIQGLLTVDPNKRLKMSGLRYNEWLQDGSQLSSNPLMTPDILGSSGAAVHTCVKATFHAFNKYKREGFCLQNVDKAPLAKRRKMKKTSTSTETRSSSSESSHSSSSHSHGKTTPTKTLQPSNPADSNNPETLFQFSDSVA

[7] = biological target: T4, AXL (Homo sapiens, UniProt P30530)
T4 sequence (P30530 1-894): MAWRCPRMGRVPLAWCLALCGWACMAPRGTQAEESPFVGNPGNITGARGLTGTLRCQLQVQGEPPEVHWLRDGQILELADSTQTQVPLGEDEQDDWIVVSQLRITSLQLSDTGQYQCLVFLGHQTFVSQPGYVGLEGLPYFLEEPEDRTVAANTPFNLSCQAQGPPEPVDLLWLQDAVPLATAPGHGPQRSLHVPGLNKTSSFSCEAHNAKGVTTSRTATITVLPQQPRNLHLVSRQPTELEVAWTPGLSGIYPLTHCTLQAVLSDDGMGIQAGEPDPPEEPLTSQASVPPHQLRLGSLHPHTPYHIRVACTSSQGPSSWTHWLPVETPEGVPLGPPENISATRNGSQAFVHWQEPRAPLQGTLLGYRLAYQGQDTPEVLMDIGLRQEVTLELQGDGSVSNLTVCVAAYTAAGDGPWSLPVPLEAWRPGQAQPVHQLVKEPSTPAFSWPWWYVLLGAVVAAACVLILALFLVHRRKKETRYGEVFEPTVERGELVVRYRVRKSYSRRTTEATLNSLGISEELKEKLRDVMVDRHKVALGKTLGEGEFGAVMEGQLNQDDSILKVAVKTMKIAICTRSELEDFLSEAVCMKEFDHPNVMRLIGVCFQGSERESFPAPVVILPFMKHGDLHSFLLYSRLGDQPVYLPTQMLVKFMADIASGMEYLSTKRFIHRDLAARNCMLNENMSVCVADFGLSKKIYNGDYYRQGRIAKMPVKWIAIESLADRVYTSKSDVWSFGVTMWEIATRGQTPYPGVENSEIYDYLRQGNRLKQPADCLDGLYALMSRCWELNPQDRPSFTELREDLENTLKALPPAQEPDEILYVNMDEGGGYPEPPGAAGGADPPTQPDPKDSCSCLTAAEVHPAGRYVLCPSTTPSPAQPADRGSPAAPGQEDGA

[8] = biological target: PRKCQ (Homo sapiens, UniProt Q04759)
Chain of PRKCQ (Q04759 whole entry): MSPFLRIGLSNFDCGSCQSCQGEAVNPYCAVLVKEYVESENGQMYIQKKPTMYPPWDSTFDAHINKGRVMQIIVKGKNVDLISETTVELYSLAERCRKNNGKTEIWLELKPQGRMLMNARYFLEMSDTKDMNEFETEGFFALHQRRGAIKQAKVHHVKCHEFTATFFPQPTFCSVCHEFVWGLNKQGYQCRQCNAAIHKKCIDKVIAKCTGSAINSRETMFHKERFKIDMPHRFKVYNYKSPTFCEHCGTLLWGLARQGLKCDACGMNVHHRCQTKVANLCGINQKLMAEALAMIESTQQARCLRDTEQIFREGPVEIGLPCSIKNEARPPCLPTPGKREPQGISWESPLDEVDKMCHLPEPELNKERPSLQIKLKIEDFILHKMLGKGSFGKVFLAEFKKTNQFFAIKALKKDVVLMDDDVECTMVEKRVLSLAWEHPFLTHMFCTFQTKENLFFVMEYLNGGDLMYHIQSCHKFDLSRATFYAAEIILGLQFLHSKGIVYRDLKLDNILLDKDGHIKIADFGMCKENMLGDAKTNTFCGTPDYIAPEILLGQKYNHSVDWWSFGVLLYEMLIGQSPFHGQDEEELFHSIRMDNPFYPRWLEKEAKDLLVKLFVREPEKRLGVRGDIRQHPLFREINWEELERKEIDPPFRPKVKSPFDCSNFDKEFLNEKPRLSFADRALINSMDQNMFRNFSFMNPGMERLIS

SMILES | IC50 [1] | IC50 [2] | IC50 [3] | IC50 [4] | IC50 [5] | IC50 [6] | IC50 [7] | IC50 [8]
CN(C)CC(O)COc1ccc(Nc2ncc([N+](=O)[O-])c(Nc3ccccc3O)n2)cc1.O=C(O)C(F)(F)F (stereo not drawn) [TCMDC-141399] | 1200 nM and 950 nM | 5500 nM | > 20000 nM | 350 nM and 480 nM | > 20000 nM | > 20000 nM | > 20000 nM | > 20000 nM
Cl.NCC1(c2nc(-c3ccc(Cl)c(O)c3)c(-c3ccncc3)[nH]2)CCCCC1 [TCMDC-141154] | > 20000 nM | > 20000 nM | > 20000 nM | > 20000 nM | > 20000 nM | > 20000 nM | > 20000 nM | 1100 nM and 1400 nM
CN1CCN(c2ccc(Nc3ncc(C#N)c(Nc4ccccc4C(N)=O)n3)cc2)CC1.Cl [TCMDC-134116] | 1100 nM and 1400 nM | 67 nM | 540 nM and 440 nM | 77 nM and 97 nM | 890 nM and 740 nM | 500 nM and 750 nM | 500 nM and 550 nM | 1200 nM and 910 nM
